# Reference: PMC6017654, “Ionic Liquid-Promoted Synthesis of Novel Chromone-Pyrimidine Coupled Derivatives, Antimicrobial Analysis, Enzyme Assay, Docking Study and Toxicity Study” (Molecules : A Journal of Synthetic Chemistry and Natural …, 2018)
# What was measured:
# [1] = system: ergosterol biosynthesis in Candida albicans (NCIM-3471); test: Ergosterol extraction and quantitation assay (UV sterol profile); assay type: cell-based; settings: C. albicans NCIM3471
# Protocol: Changes in this absorption pattern are therefore indicative of interference in the synthetic pathway of ergosterol.
# A single Candida albicans (NCIM-3471) colony from an overnight Sabouraud dextrose agar plate culture was used to inoculate 50 mL of Sabouraud dextrose broth for control and for various concentrations of the molecules. The cultures were incubated for 16 hours and harvested by centrifugation at 2700 rpm (856× g) for five min. The net weight of the cell pellet was determined. Three mL of 25% alcoholic potassium hydroxide solution was added to each pellet and vortex mixed for one min. Cell suspensions were transferred to sterile borosilicate glass screw-cap tubes and were incubated in an 85 °C water bath for one hour. Following incubation, the tubes were allowed to cool. Sterols were then extracted by addition of a mixture of 1 mL of sterile distilled water and 3 mL of n-heptane followed by vigorous vortex mixing for 3 min. The heptane layer was transferred to a clean borosilicate glass screw-cap tube and stored at −20 °C. Prior to analysis, 0.6 mL aliquot of sterol extract was diluted five fold in 100% ethanol and scanned spectrophotometrically between 240 nm and 300 nm with a spectrophotometer (UV-Visible Spectrophotometer 2100, Thermo Fischer Scientific, Waltham, MA, USA). The presence of ergosterol and the late sterol intermediate 24(28)-dehydroergosterol (DHE) in the extracted sample results in a characteristic four-peaked curve. The absence of detectable ergosterol in extracts was indicated by a flat line.
# Sterols were extracted from cells and spectral profiles between 240 and 300 nm were determined.
# [2] = In vitro cytotoxicity, Sulforhodamine B (SRB) assay; assay type: cell-based, human; settings: human, range 80 to 0.55 μg/mL
# Text: (§1) Toxicity scrutiny of synthesized compounds at the early phase of research paves the way to clinical trials and reduces the failure of potential therapeutics at later stages of clinical trials. To scrutinize the safety and selectivity of antimicrobial activity of the synthesized compounds, the compounds 6c and 6f were appraised for their toxicity against HeLa (a human cervical cancer cell line) and PC-3 (human prostate cancer cell line) by the Sulforhodamine B (SRB) assay using adriamycin as a standard drug.
# (§2) The images were captured using an Eclipse Ti-S Inverted Research Microscope (Nikon, Tokyo, Japan). Image processing software used was NIS-Elements.
# [3] = system: HeLa (human cervical cancer cell line); test: as above; assay type: cell-based; settings: up to 80 µg/mL
# Text: as §1, §2
# Swiss albino mice = test: In vivo acute oral toxicity study and gross behavioral study (OECD guideline No. 425)
# Protocol: The in vivo acute oral toxicity and gross behavioral study results of the newly synthesized compounds 6c and 6f are as listed in Table 12 [26].
# Each group, consisting of six Swiss albino mice (18–22 gm weight, overnight fasted), were kept in colony cage at 25 ± 2 °C with 55% relative humidity and 12 h of light and dark cycle. A specified dose of 100, 250, 500, 750, 1000, 1500 and 2000 mg/kg body weight of mice was administered orally as a single dose. The acute toxic symptoms and the behavioral changes produced by the test compounds were observed continuously for 4 h periods at 8th, 12th and 24th h on set of toxic symptoms and the gross behavioral changes were also recorded. These animals were maintained for further 10 days with observation made daily. The in vivo acute oral toxicity study was carried out at animal house at the Y.B. Chavan College of Pharmacy, Aurangabad IAEC approval number CPCSEA/IAEC/P’col-52/2015-16/115 [26].
structure (smiles),measurement,setting,value
"COc1ccc2occ(C3NC(=S)NC(C)=C3C(=O)NN)c(=O)c2c1 (stereo not shown) [Compound 6f, 4-(6-Methoxy-4-oxo-4H-chromen-3-yl)-6-methyl-2-thioxo-1,2,3,4-tetrahydropyrimidine-5-carbohydrazide]",ergosterol peak in UV sterol profile at the MIC value,"[1]; 6f 24 µg/mL, miconazole 25 µg/mL, 281.5 nm",almost a flat peak
same,ergosterol peak at 281.5 nm with increasing concentration,[1]; MIC/16 to MIC (1.5 to 24 µg/mL),intensity of the ergosterol peak at 281.5 nm decreases
same,GI50,"[2]; HeLa cells, SRB assay",> 80 µg/mL
same,GI50,[2]; PC-3 cells,> 80 µg/mL
same,cell inhibition,[3],cell inhibition did not occur
same,No. of Deaths,"Swiss albino mice; Swiss albino mice, single oral dose 100 to 2000 mg/kg",N
same,lethal dose,"Swiss albino mice; mice, oral, single dose, no mortality up to 2000 mg/kg",above 2000 mg/kg body weight
